From patent US5369016A, “Peptide amidase and the use thereof” (Forschungszentrum Juelich GmbH, priority 1990, dated 1994)
Peptide text beside a SMILES is read from it. * marks the point of attachment. Cbz = O=C(OCc1ccccc1)*

Each compound was assayed on peptide amidase (assay: Effect of the acetone concentration on kinetic parameters Km and Vmax). Settings: not given.
Format: biochemical, orange
Experimental: Substrate: Z--Gly--Tyr--NH2; 40 μg/ml peptide amidase in 50 mM

variation of Km and Vmax with solvent concentration (in words)	SMILES
did not vary significantly	N=C(N)NCCC[C@H](NC(=O)c1ccccc1)C(N)=O [Bz--Arg--NH2]

Same assay, conditions: 5% acetone

Vmax	SMILES
2.93 U/mg	NC(=O)[C@H](Cc1ccc(O)cc1)NC(=O)CNC(=O)OCc1ccccc1 [Z--Gly--Tyr--NH2, benzyloxycarbonyl-glycyltyrosinamide] (Cbz-Gly-Tyr-NH2)

Same assay, conditions: 5% acetone; 40 μg/ml peptide amidase, pH 7.5

Km	SMILES
0.063 mM	NC(=O)[C@H](Cc1ccc(O)cc1)NC(=O)CNC(=O)OCc1ccccc1 [Z--Gly--Tyr--NH2, benzyloxycarbonyl-glycyltyrosinamide] (Cbz-Gly-Tyr-NH2)

Same assay, conditions: 20% acetone

Km	Vmax	SMILES
1.6 mM	2.54 U/mg	NC(=O)[C@H](Cc1ccc(O)cc1)NC(=O)CNC(=O)OCc1ccccc1 [Z--Gly--Tyr--NH2, benzyloxycarbonyl-glycyltyrosinamide] (Cbz-Gly-Tyr-NH2)

Same assay, conditions: 40% acetone

Km	Vmax	SMILES
5.5 mM	2.57 U/mg	NC(=O)[C@H](Cc1ccc(O)cc1)NC(=O)CNC(=O)OCc1ccccc1 [Z--Gly--Tyr--NH2, benzyloxycarbonyl-glycyltyrosinamide] (Cbz-Gly-Tyr-NH2)

Same assay, conditions: 60% acetone

Km	Vmax	SMILES
19.6 mM	2.58 U/mg	NC(=O)[C@H](Cc1ccc(O)cc1)NC(=O)CNC(=O)OCc1ccccc1 [Z--Gly--Tyr--NH2, benzyloxycarbonyl-glycyltyrosinamide] (Cbz-Gly-Tyr-NH2)

The compounds below were run on peptide amidase (assay: Deamidation of N-terminal protected amino acid amides). Settings: 10 mM substrate; 50 μg.ml peptide amidase; 50 mM tris/HCl; pH 7.0; 30° C.
Format: biochemical, orange
Experimental: Separating conditions according to Example 3A were employed.
Eluent: TBA/acetonitrile 65:35 (90:10 for Bz-Arg-NH2)
Reaction conditions: 10 mM substrate; 50 μg.ml peptide amidase; 50 mM
tris/HCl; pH 7.0; Temperature 30° C.

Spec. Activity	SMILES
4.39 U/mg	N=C(N)NCCC[C@H](NC(=O)c1ccccc1)C(N)=O [Bz--Arg--NH2]
6.34 U/mg	NC(=O)[C@H](Cc1ccc(O)cc1)NC(=O)c1ccccc1 [Bz--Tyr--NH2]
0.37 U/mg	NC(=O)[C@H](Cc1c[nH]c2ccccc12)NC(=O)OCc1ccccc1 [Z--Trp--NH2]
2.32 U/mg	CC(=O)N[C@@H](Cc1c[nH]c2ccccc12)C(N)=O [Ac--Trp--NH2]

Same assay, conditions: 10 mM substrate; 50 μg.ml peptide amidase; pH 7.0; 30° C.; 28 min

Yield	SMILES
61.6 %/28 min	N=C(N)NCCC[C@H](NC(=O)c1ccccc1)C(N)=O [Bz--Arg--NH2]
88.7 %/28 min	NC(=O)[C@H](Cc1ccc(O)cc1)NC(=O)c1ccccc1 [Bz--Tyr--NH2]
5.16 %/28 min	NC(=O)[C@H](Cc1c[nH]c2ccccc12)NC(=O)OCc1ccccc1 [Z--Trp--NH2]
32.4 %/28 min	CC(=O)N[C@@H](Cc1c[nH]c2ccccc12)C(N)=O [Ac--Trp--NH2]

Same assay, conditions: 10 mM substrate; 50 μg.ml peptide amidase; pH 7.0; 30° C.; 120 min

Yield	SMILES
100 %/2 h	N=C(N)NCCC[C@H](NC(=O)c1ccccc1)C(N)=O [Bz--Arg--NH2]
100 %/2 h	NC(=O)[C@H](Cc1ccc(O)cc1)NC(=O)c1ccccc1 [Bz--Tyr--NH2]
23.5 %/2 h	NC(=O)[C@H](Cc1c[nH]c2ccccc12)NC(=O)OCc1ccccc1 [Z--Trp--NH2]
100 %/2 h	CC(=O)N[C@@H](Cc1c[nH]c2ccccc12)C(N)=O [Ac--Trp--NH2]

Same assay, conditions: peptide amidase, pH 7, 10000 µM

Yield after 45 min	yield after 15 minutes	SMILES
73.5%		N=C(N)NCCC[C@H](NC(=O)c1ccccc1)C(N)=O [Bz--Arg--NH2]
	47.6%	NC(=O)[C@H](Cc1ccc(O)cc1)NC(=O)c1ccccc1 [Bz--Tyr--NH2]
14.9%		NC(=O)[C@H](Cc1c[nH]c2ccccc12)NC(=O)OCc1ccccc1 [Z--Trp--NH2]
48.9%		CC(=O)N[C@@H](Cc1c[nH]c2ccccc12)C(N)=O [Ac--Trp--NH2]

What follows are compounds tested on peptide amidase from orange flavedo (assay: Cleavage of amides of amino acids (TLC)). Settings: 50 μg/ml; 10 mM substrate; 24 h; 0.05M KPi, pH 7.5; * = slight traces.
Format: biochemical
Design: scale not given here
Experimental: A DEAE-purified enzyme was employed in these experiments (volumetric activity: 40 U/ml for the substrate For-Tyr-Arg-NH2).
from orange flavedo. (50 μg/ml; 10 mM substrate)
Eluent: pyridine/butanol/AcOH/H2 O (12:15:3:5).
Reaction: 24 h, RT; 0.05M KPi, pH 7.5., 30° C.
Blank sample without enzyme.

SMILES	Reaction
C[C@@H](N)C(N)=O [D-Ala--NH2]	0
NCCCC[C@H](N)C(N)=O [Lys--NH2]	0
C[C@H](N)C(N)=O [Ala--NH2]	0
CC(C)C[C@@H](N)C(N)=O [D-Leu--NH2]	0
N=C(N)NCCC[C@H](N)C(N)=O [Arg--NH2]	0
NC(=O)[C@H](N)Cc1ccccc1 [D-Phe--NH2]	0

Results, then the compound that gave them:

Reaction	SMILES
0	C[C@@H](O)[C@H](N)C(N)=O [Thr--NH2]
0	CC(C)[C@H](N)C(N)=O [Val--NH2]
0	NC(=O)[C@@H](N)Cc1cnc[nH]1 [His--NH2]
0	CC(C)C[C@H](N)C(N)=O [Leu--NH2]
0	NC(=O)[C@@H](N)Cc1ccccc1 [Phe--NH2]
0	NC(=O)[C@@H](N)CO [Ser--NH2]
0	CC[C@H](C)[C@H](N)C(N)=O [Ile--NH2]
0	NC(=O)[C@@H](N)Cc1ccc(O)cc1 [Tyr--NH2]
0	NC(=O)[C@@H](N)Cc1c[nH]c2ccccc12 [Trp--NH2]
0	CSCC[C@H](N)C(N)=O [Met--NH2]

What follows are compounds tested on peptide amidase (assay: Effect of chelating agents, metal cations and enzyme inhibitors on peptide amidase activity). Settings: not given.
Format: biochemical, navel oranges
Experimental: The effect of the following inhibitors on peptide amidase activity was determined under standard conditions according to the methods described in Example 1. The inhibitor concentration was 10 mM in each case.

SMILES	inhibition of peptide amidase (in words)	% activity remaining
O=S(=O)(F)Cc1ccccc1 [PMSF, phenylmethanesulfonyl fluoride]	significantly inhibited	
O=C(O)CN(CCN(CC(=O)O)CC(=O)O)CC(=O)O [EDTA, ethylenedinitrilotetraacetic acid]		92%
NCC(=O)O [Glycine]		99%

Same assay, conditions: inhibitor 0.01 m (10 mM); standard conditions of Example 1

SMILES	% activity remaining
O=C(O)c1cc[c]([Hg][OH])cc1 [p-OHMBA, parahydroxymercuribenzoate]	96%
O=S(=O)(F)Cc1ccccc1 [PMSF, phenylmethanesulfonyl fluoride]	55%
NC(=O)CI [Iodoacetamide]	99%
O[C@H](CS)[C@H](O)CS (racemic) [Dithiothreitol]	100%
[Cl][Hg][Cl] [HgCl2]	95%
CCN1C(=O)C=CC1=O [EMI, ethylmaleimide]	100%

Same assay, conditions: listed as phenylmethanesulfonyl fluoride

SMILES	inhibition of peptide amidase (in words)
O=S(=O)(F)Cc1ccccc1 [PMSF, phenylmethanesulfonyl fluoride]	weak inhibition

What follows are compounds tested on peptide amidase (assay: Enzymatic cleavage of N-terminal protected dipeptide amides). Settings: enzymatic cleavage of the C-terminal amide.
Format: biochemical, orange
Text: The results in Table 7 were obtained using an eluent: TBA/acetonitrile 60/40 (% volume)

Yield	SMILES
100%	NC(=O)[C@H](Cc1ccc(O)cc1)NC(=O)c1ccccc1 [Bz--Tyr--NH2]

Same assay, conditions: peptide amidase

Yield	SMILES
100%	NC(=O)[C@H](Cc1ccc(O)cc1)NC(=O)CNC(=O)OCc1ccccc1 [Z--Gly--Tyr--NH2, benzyloxycarbonyl-glycyltyrosinamide] (Cbz-Gly-Tyr-NH2)
